PMC8639922, “KSHV transactivator-derived small peptide traps coactivators to attenuate MYC and inhibits leukemia and lymphoma cell growth” (Communications Biology, 2021)
Square brackets hold non-standard residues; d marks the D form. Peptide text beside a SMILES is read from it. Orn = NCCC[C@H](N)C(=O)O; βAla = NCCC(=O)O

System: PEL-derived human cytokines
Test: Olink INFLAMMATION panel, cytokines in ascites fluid of PEL xenograft
Type: in vivo, mouse
Set-up: key to IL8 / CXCL10 / FGF-19 / IL-12B / TRAIL / VEGFA / IL-17A / CST5 / IL-18R1 / HGF / ARTN / bNGF: NPX, log2-normalized protein expression; key to 4E-BP1 / TWEAK / LAP TGF-beta-1 / Beta-NGF / LAPTGFb-1 / TWAEK / 4EBP-1 / IL-8: log2-scale normalized protein expression (NPX) values
Protocol: Fig. 6 VGN50 inhibits BCBL-1 cell growth in xenograft mice. a PEL-xenograft. BCBL-1 cells (2 × 10^7 cells) were injected i.p. Peptide (10 mg/kg) was administrated i.p. daily and tumor growth was monitored by measurement of body weight (n = 6–9 mice per group). b Ascites volume and PEL cell counts. In a separate experiment, ascites volume and PEL cell counts in ascites fluid were measured at day 10. (n = 3–4 mice per group) c Induction of atrophy. BCBL-1 cells isolated from ascites fluid were measured for FSC-A and SSC-A by flow cytometry. […] (n = 3) d Expression of inflammatory cytokines. Principal component analysis based on expression levels of inflammatory cytokine contents in ascites fluid. e Cytokine heat map. Heatmap generated based on abundance of the indicated cytokines in ascites fluids. Ascites fluid was taken at day 10. a–c Data were analyzed using ordinary one-way Anova followed by Tukey’s multiple comparisons test.
Since PELs are frequently involved in effusions in multiple body cavities in human patients and the amounts of inflammatory cytokines in the effusion are strong prognostic factors, we also extracted ascites fluid and profiled it to see if the PEL cell-derived human cytokine profile was also altered by continued VGN50 treatment.
PEL-derived cytokine profiles in ascites were measured with Olink analysis service with the Olink INFLAMMATION panel using proximity extension technology, a high-throughput multiplex proteomic immunoassay. In short, the panel includes 92 immune-related proteins, primarily cytokines and chemokines. The assay utilizes epitope-specific binding and hybridization of a set of paired oligonucleotide antibody probes, which is subsequently amplified using quantitative PCR, resulting in log base 2-normalized protein expression (NPX) values. The data was processed and analyzed with Olink Insight Stat Analysis software.

CC(C)C[C@H](NC(=O)CCNC(=O)[C@H](CCCNC(=N)N)NC(=O)[C@H](CCCNC(=N)N)NC(=O)[C@H](CCCNC(=N)N)NC(=O)[C@H](CCCN)NC(=O)[C@H](CCCNC(=N)N)NC(=O)[C@H](CCCNC(=N)N)NC(=O)[C@H](CCCCN)NC(=O)[C@H](CCCCN)NC(=O)[C@H](N)CCCNC(=N)N)C(=O)N[C@@H](CO)C(=O)N[C@@H](CO)C(=O)N[C@@H](C)C(=O)N[C@@H](C)C(=O)N[C@@H](C)C(=O)NCC(=O)N[C@@H](CC(C)C)C(=O)N[C@@H](Cc1ccc(O)cc1)C(=O)N[C@@H](CCC(N)=O)C(=O)N[C@@H](CC(C)C)C(=O)N[C@@H](CC(=O)O)C(=O)N[C@H](C(=O)O)[C@@H](C)O [Mt-P] (H-[dR]KKRR[Orn]RRR[βAla]LSSAAAGLYQLDT-OH; N-terminus and C-terminus assumed)
4E-BP1 (sheet Fig.6d-e, animal 1): 11.1631 | ARTN (sheet Fig.6d-e, animal 1): 5.386 | Beta-NGF (sheet Fig.6d-e, animal 1): -0.391 | CST5 (sheet Fig.6d-e, animal 1): 1.859 | CXCL10 (sheet Fig.6d-e, animal 1): 13.3461 | FGF-19 (sheet Fig.6d-e, animal 1): 2.165 | HGF (sheet Fig.6d-e, animal 1): 6.396 | IL8 (sheet Fig.6d-e, animal 1): 0.86 | IL-12B (sheet Fig.6d-e, animal 1): 2.007 | IL-17A (sheet Fig.6d-e, animal 1): 3.739 | IL-18R1 (sheet Fig.6d-e, animal 1): 4.131 | LAP TGF-beta-1 (sheet Fig.6d-e, animal 1): 6.199 | TRAIL (sheet Fig.6d-e, animal 1): 1.379 | TWEAK (sheet Fig.6d-e, animal 1): 8.018 | VEGFA (sheet Fig.6d-e, animal 1): 14.7314 | 4E-BP1 (sheet Fig.6d-e, animal 2): 11.0835 | ARTN (sheet Fig.6d-e, animal 2): 5.243 | Beta-NGF (sheet Fig.6d-e, animal 2): -0.4548 | CST5 (sheet Fig.6d-e, animal 2): 2.027 | CXCL10 (sheet Fig.6d-e, animal 2): 13.3201 | FGF-19 (sheet Fig.6d-e, animal 2): 2.0905 | HGF (sheet Fig.6d-e, animal 2): 6.305 | IL8 (sheet Fig.6d-e, animal 2): 0.7089 | IL-12B (sheet Fig.6d-e, animal 2): 2.204 | IL-17A (sheet Fig.6d-e, animal 2): 3.881 | IL-18R1 (sheet Fig.6d-e, animal 2): 4.133 | LAP TGF-beta-1 (sheet Fig.6d-e, animal 2): 6.253 | TRAIL (sheet Fig.6d-e, animal 2): 1.569 | TWEAK (sheet Fig.6d-e, animal 2): 8.091 | VEGFA (sheet Fig.6d-e, animal 2): 14.6793 | 4E-BP1 (sheet Fig.6d-e, animal 3): 10.8123 | ARTN (sheet Fig.6d-e, animal 3): 5.723 | Beta-NGF (sheet Fig.6d-e, animal 3): -0.3222 | CST5 (sheet Fig.6d-e, animal 3): 2.133 | CXCL10 (sheet Fig.6d-e, animal 3): 13.0806 | FGF-19 (sheet Fig.6d-e, animal 3): 2.37 | HGF (sheet Fig.6d-e, animal 3): 6.6 | IL8 (sheet Fig.6d-e, animal 3): 0.7009 | IL-12B (sheet Fig.6d-e, animal 3): 2.082 | IL-17A (sheet Fig.6d-e, animal 3): 4.127 | IL-18R1 (sheet Fig.6d-e, animal 3): 4.157 | LAP TGF-beta-1 (sheet Fig.6d-e, animal 3): 6.359 | TRAIL (sheet Fig.6d-e, animal 3): 1.603 | TWEAK (sheet Fig.6d-e, animal 3): 8.37 | VEGFA (sheet Fig.6d-e, animal 3): 14.8087 | 4EBP-1 (sheet SFig5, animal 1): 11.7332 | ARTN (sheet SFig5, animal 1): 5.386 | CST5 (sheet SFig5, animal 1): 1.859 | FGF-19 (sheet SFig5, animal 1): 2.165 | HGF (sheet SFig5, animal 1): 4.42 | IL-8 (sheet SFig5, animal 1): 0.86 | IL-12B (sheet SFig5, animal 1): 2.007 | IL-17A (sheet SFig5, animal 1): 1.782 | IL-18R1 (sheet SFig5, animal 1): 4.131 | LAPTGFb-1 (sheet SFig5, animal 1): 4.365 | TRAIL (sheet SFig5, animal 1): 1.379 | TWAEK (sheet SFig5, animal 1): 5.713 | VEGFA (sheet SFig5, animal 1): 13.2543 | bNGF (sheet SFig5, animal 1): -0.391 | 4EBP-1 (sheet SFig5, animal 2): 11.7927 | ARTN (sheet SFig5, animal 2): 5.243 | CST5 (sheet SFig5, animal 2): 2.027 | CXCL10 (sheet SFig5, animal 2): 11.2953 | FGF-19 (sheet SFig5, animal 2): 2.0905 | HGF (sheet SFig5, animal 2): 4.269 | IL-8 (sheet SFig5, animal 2): 0.7089 | IL-12B (sheet SFig5, animal 2): 2.204 | IL-17A (sheet SFig5, animal 2): 1.942 | IL-18R1 (sheet SFig5, animal 2): 4.133 | LAPTGFb-1 (sheet SFig5, animal 2): 4.29 | TRAIL (sheet SFig5, animal 2): 1.569 | TWAEK (sheet SFig5, animal 2): 5.701 | VEGFA (sheet SFig5, animal 2): 13.2545 | bNGF (sheet SFig5, animal 2): -0.4548 | 4EBP-1 (sheet SFig5, animal 3): 11.484 | ARTN (sheet SFig5, animal 3): 5.723 | CST5 (sheet SFig5, animal 3): 2.133 | CXCL10 (sheet SFig5, animal 3): 11.1526 | FGF-19 (sheet SFig5, animal 3): 2.37 | HGF (sheet SFig5, animal 3): 4.697 | IL-8 (sheet SFig5, animal 3): 0.7009 | IL-12B (sheet SFig5, animal 3): 2.082 | IL-17A (sheet SFig5, animal 3): 2.371 | IL-18R1 (sheet SFig5, animal 3): 4.157 | LAPTGFb-1 (sheet SFig5, animal 3): 4.688 | TRAIL (sheet SFig5, animal 3): 1.603 | TWAEK (sheet SFig5, animal 3): 6.152 | VEGFA (sheet SFig5, animal 3): 13.6674 | bNGF (sheet SFig5, animal 3): -0.3222
